Experiments:
Format in all cases: cell-based, mouse
[1] = system: β-galactosidase in CMV-LacZ C2C12 myotubes; test: CMV-LacZ secondary screen in C2C12 myotubes (β-Gal stabilizing assay); conditions: for CMV-LACZ in Myotubes, value relative to DMSO: SU9516 analogs, C2C12 CMV-LacZ, N=2; for CMV-LACZ in Myotubes, signal relative to DMSO: C2C12 CMV-LacZ myotubes, fold relative to DMSO
Summary of the method: (§1)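 First, C2C12 myoblasts were transfected with a linearized CMV-LACZ vector and clonal lines selected by FDG β-gal assay. Then cells were exposed to compounds at 0.5, 1, 5, 10, 20 and 40 μM in 96-well format, two replicates each, and β-gal measured.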

[2] = system: α7 integrin (LacZ reporter in α7+/LacZ myotubes); test: Myotube α7 integrin FDG assay (Burkin assay in myotubes, 96-well); conditions: for Burkin Assay in Myotubes, value relative to DMSO: SU9516 analogs, 96-well, N=3-6
[3] = system: α7 integrin (LacZ reporter in α7βgal+/− myoblasts); test: Myoblast α7+/LacZ integrin FDG assay (Burkin assay in myoblasts, 96-well); conditions: 96-well; for Burkin Assay in Myoblasts, value relative to DMSO: SU9516 analogs, N=3-6; for Burkin Assay in Myoblasts, signal relative to DMSO: α7+/LacZ myoblasts
[4] = system: β-galactosidase in CMV-LacZ C2C12 myoblasts; test: CMV-LacZ secondary screen in C2C12 myoblasts (β-Gal stabilizing assay); conditions: for CMV-LACZ in Myoblasts, value relative to DMSO: SU9516 analogs, C2C12 CMV-LacZ, N=2; for CMV-LACZ in Myoblasts (β-galactosidase activity relative to DMSO): CMV-LacZ C2C12 myoblasts
Summary of the method: as §1

O=C1Nc2ccccc2/C1=C/c1cccnc1 [MLS000682748-01]
CMV-LACZ in Myotubes, value relative to DMSO ([1]; 0.5 uM): 0.9356
CMV-LACZ in Myotubes, value relative to DMSO ([1]; 1 uM): 0.8459
CMV-LACZ in Myotubes, value relative to DMSO ([1]; 5 uM): 0.8790
CMV-LACZ in Myotubes, value relative to DMSO ([1]; 10 uM): 0.9205
CMV-LACZ in Myotubes, value relative to DMSO ([1]; 20 uM): 1.1753
CMV-LACZ in Myotubes, value relative to DMSO ([1]; 40 uM): 1.1071
Burkin Assay in Myotubes, value relative to DMSO ([2]; 0.5 uM): 0.9801
Burkin Assay in Myotubes, value relative to DMSO ([2]; 1 uM): 1.211
Burkin Assay in Myotubes, value relative to DMSO ([2]; 5 uM): 1.147
Burkin Assay in Myotubes, value relative to DMSO ([2]; 10 uM): 1.085
Burkin Assay in Myotubes, value relative to DMSO ([2]; 20 uM): 0.743
Burkin Assay in Myotubes, value relative to DMSO ([2]; 40 uM): 0.6206
Burkin Assay in Myoblasts, value relative to DMSO ([3]; 0.5 uM): 1.259
Burkin Assay in Myoblasts, value relative to DMSO ([3]; 1 uM): 1.162
Burkin Assay in Myoblasts, value relative to DMSO ([3]; 5 uM): 0.8923
Burkin Assay in Myoblasts, value relative to DMSO ([3]; 10 uM): 0.765
Burkin Assay in Myoblasts, value relative to DMSO ([3]; 20 uM): 0.4669
Burkin Assay in Myoblasts, value relative to DMSO ([3]; 40 uM): 0.2472
CMV-LACZ in Myoblasts, value relative to DMSO ([4]; 0.5 uM): 0.9075
CMV-LACZ in Myoblasts, value relative to DMSO ([4]; 1 uM): 0.9666
CMV-LACZ in Myoblasts, value relative to DMSO ([4]; 5 uM): 1.0215
CMV-LACZ in Myoblasts, value relative to DMSO ([4]; 10 uM): 0.9959
CMV-LACZ in Myoblasts, value relative to DMSO ([4]; 20 uM): 0.3893
CMV-LACZ in Myoblasts, value relative to DMSO ([4]; 40 uM): 0.2419

Cc1ccc2c(c1)/C(=C/c1ccco1)C(=O)N2 [MLS000682750-01]
CMV-LACZ in Myotubes, signal relative to DMSO ([1]; 0.5 uM): 1.0248
CMV-LACZ in Myotubes, signal relative to DMSO ([1]; 1 uM): 0.9638
CMV-LACZ in Myotubes, signal relative to DMSO ([1]; 5 uM): 1.1285
CMV-LACZ in Myotubes, signal relative to DMSO ([1]; 10 uM): 1.0939
CMV-LACZ in Myotubes, signal relative to DMSO ([1]; 20 uM): 1.1189
CMV-LACZ in Myotubes, signal relative to DMSO ([1]; 40 uM): 1.0579
Burkin Assay in Myotubes, α7 integrin LacZ reporter signal relative to DMSO ([2]; myotubes, 0.5 uM): 0.9957
Burkin Assay in Myotubes, α7 integrin LacZ reporter signal relative to DMSO ([2]; myotubes, 1 uM): 0.9939
Burkin Assay in Myotubes, α7 integrin LacZ reporter signal relative to DMSO ([2]; myotubes, 5 uM): 1.073
Burkin Assay in Myotubes, α7 integrin LacZ reporter signal relative to DMSO ([2]; myotubes, 10 uM): 0.8839
Burkin Assay in Myotubes, α7 integrin LacZ reporter signal relative to DMSO ([2]; myotubes, 20 uM): 1.002
Burkin Assay in Myotubes, α7 integrin LacZ reporter signal relative to DMSO ([2]; myotubes, 40 uM): 0.7064
Burkin Assay in Myoblasts, signal relative to DMSO ([3]; 0.5 uM): 1.203
Burkin Assay in Myoblasts, signal relative to DMSO ([3]; 1 uM): 1.02
Burkin Assay in Myoblasts, signal relative to DMSO ([3]; 5 uM): 1.229
Burkin Assay in Myoblasts, signal relative to DMSO ([3]; 10 uM): 1.076
Burkin Assay in Myoblasts, signal relative to DMSO ([3]; 20 uM): 1.124
Burkin Assay in Myoblasts, signal relative to DMSO ([3]; 40 uM): 1.103
CMV-LACZ in Myoblasts (β-galactosidase activity relative to DMSO) ([4]; 0.5 uM): 0.9679
CMV-LACZ in Myoblasts (β-galactosidase activity relative to DMSO) ([4]; 1 uM): 1.0467
CMV-LACZ in Myoblasts (β-galactosidase activity relative to DMSO) ([4]; 5 uM): 0.8717
CMV-LACZ in Myoblasts (β-galactosidase activity relative to DMSO) ([4]; 10 uM): 0.9934
CMV-LACZ in Myoblasts (β-galactosidase activity relative to DMSO) ([4]; 20 uM): 1.1433
CMV-LACZ in Myoblasts (β-galactosidase activity relative to DMSO) ([4]; 40 uM): 1.0404

Nc1ncnc(N2CCc3ccccc32)c1[N+](=O)[O-] [MLS000683232-01]
CMV-LACZ in Myotubes, signal relative to DMSO ([1]; 0.5 uM): 0.8200
CMV-LACZ in Myotubes, signal relative to DMSO ([1]; 1 uM): 0.7752
CMV-LACZ in Myotubes, signal relative to DMSO ([1]; 5 uM): 0.8743
CMV-LACZ in Myotubes, signal relative to DMSO ([1]; 10 uM): 1.0086
CMV-LACZ in Myotubes, signal relative to DMSO ([1]; 20 uM): 0.8835
CMV-LACZ in Myotubes, signal relative to DMSO ([1]; 40 uM): 0.8365
Burkin Assay in Myotubes, α7 integrin LacZ reporter signal relative to DMSO ([2]; myotubes, 0.5 uM): 1.136
Burkin Assay in Myotubes, α7 integrin LacZ reporter signal relative to DMSO ([2]; myotubes, 1 uM): 1.2778
Burkin Assay in Myotubes, α7 integrin LacZ reporter signal relative to DMSO ([2]; myotubes, 5 uM): 1.272
Burkin Assay in Myotubes, α7 integrin LacZ reporter signal relative to DMSO ([2]; myotubes, 10 uM): 1.448
Burkin Assay in Myotubes, α7 integrin LacZ reporter signal relative to DMSO ([2]; myotubes, 20 uM): 1.4149
Burkin Assay in Myotubes, α7 integrin LacZ reporter signal relative to DMSO ([2]; myotubes, 40 uM): 1.32
MT FOLD INCREASE ([2]; myotubes, maximum response): 1.7 fold
EC50 ([2]; myotubes, nonlinear regression of dose-response curves, read-out: EC50 α7+/LacZ MT): 5.3 µM
Burkin Assay in Myoblasts, signal relative to DMSO ([3]; 0.5 uM): 1.234
Burkin Assay in Myoblasts, signal relative to DMSO ([3]; 1 uM): 1.199
Burkin Assay in Myoblasts, signal relative to DMSO ([3]; 5 uM): 1.6445
Burkin Assay in Myoblasts, signal relative to DMSO ([3]; 10 uM): 1.778
Burkin Assay in Myoblasts, signal relative to DMSO ([3]; 20 uM): 1.821
Burkin Assay in Myoblasts, signal relative to DMSO ([3]; 40 uM): 1.654
CMV-LACZ in Myoblasts (β-galactosidase activity relative to DMSO) ([4]; 0.5 uM): 0.8043
CMV-LACZ in Myoblasts (β-galactosidase activity relative to DMSO) ([4]; 1 uM): 0.7131
CMV-LACZ in Myoblasts (β-galactosidase activity relative to DMSO) ([4]; 5 uM): 0.5638
CMV-LACZ in Myoblasts (β-galactosidase activity relative to DMSO) ([4]; 10 uM): 0.5224
CMV-LACZ in Myoblasts (β-galactosidase activity relative to DMSO) ([4]; 20 uM): 0.6119
CMV-LACZ in Myoblasts (β-galactosidase activity relative to DMSO) ([4]; 40 uM): 0.8237
